Data taken from patent US8877778B2, “Benzofurane compounds” (Hoffmann-La Roche Inc., priority 2010, dated 2014).

Key:
human 5-HT2A receptor = human 5-HT2A receptor (Homo sapiens (Human), UniProt P28223); test: Radioligand binding ([3H]-ketanserin) to cloned receptors expressed in HEK-293 EBNA cells; settings: HEK293 EBNA cell membranes expressing human 5-HT2A
Summary of the method: (§1)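 Membranes from transiently transfected HEK293 EBNA cells incubated 1 h at RT with ten compound concentrations (10 μM–0.1 nM). D2/D3: [3H]-spiperone ~0.7/0.5 nM, Tris–NaCl–Mg/Ca buffer pH 7.4; 5-HT2A: [3H]-ketanserin 1.1 nM, Tris–MgCl2–EGTA pH 7.4.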

human D3 receptor = human D3 receptor (Homo sapiens (Human), UniProt P35462); test: Radioligand binding ([3H]-spiperone) to cloned receptors expressed in HEK-293 EBNA cells; settings: HEK293 EBNA cell membranes expressing human D3
human D3 receptor, sequence (P35462 whole entry): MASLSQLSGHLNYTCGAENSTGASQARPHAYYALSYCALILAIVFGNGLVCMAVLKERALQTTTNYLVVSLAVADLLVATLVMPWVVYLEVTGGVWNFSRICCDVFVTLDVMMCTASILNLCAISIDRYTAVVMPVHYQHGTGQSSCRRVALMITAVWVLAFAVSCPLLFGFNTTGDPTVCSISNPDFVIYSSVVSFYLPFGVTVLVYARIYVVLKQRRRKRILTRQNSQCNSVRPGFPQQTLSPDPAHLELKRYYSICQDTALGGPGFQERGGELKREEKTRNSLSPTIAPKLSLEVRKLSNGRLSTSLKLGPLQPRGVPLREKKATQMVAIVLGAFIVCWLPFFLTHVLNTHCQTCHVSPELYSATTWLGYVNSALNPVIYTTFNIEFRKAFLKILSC
Summary of the method: as §1

human D2 receptor = human D2 receptor (Homo sapiens (Human), UniProt P14416); test: as above; settings: HEK293 EBNA cell membranes expressing human D2
human D2 receptor, sequence (P14416 whole entry): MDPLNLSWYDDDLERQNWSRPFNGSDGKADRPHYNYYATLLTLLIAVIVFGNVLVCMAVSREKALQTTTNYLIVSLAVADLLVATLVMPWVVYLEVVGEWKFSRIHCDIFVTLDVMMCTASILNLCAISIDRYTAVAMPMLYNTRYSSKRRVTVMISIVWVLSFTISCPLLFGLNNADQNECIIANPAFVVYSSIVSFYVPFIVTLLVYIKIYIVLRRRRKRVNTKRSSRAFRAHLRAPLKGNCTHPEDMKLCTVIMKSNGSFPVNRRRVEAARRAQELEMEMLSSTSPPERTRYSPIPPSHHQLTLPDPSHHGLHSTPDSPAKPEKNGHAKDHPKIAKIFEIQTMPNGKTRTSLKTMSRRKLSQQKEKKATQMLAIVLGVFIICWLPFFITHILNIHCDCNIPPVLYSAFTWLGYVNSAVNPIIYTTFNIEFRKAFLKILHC
Summary of the method: as §1

human 5-HT2A receptor, sequence (P28223 whole entry): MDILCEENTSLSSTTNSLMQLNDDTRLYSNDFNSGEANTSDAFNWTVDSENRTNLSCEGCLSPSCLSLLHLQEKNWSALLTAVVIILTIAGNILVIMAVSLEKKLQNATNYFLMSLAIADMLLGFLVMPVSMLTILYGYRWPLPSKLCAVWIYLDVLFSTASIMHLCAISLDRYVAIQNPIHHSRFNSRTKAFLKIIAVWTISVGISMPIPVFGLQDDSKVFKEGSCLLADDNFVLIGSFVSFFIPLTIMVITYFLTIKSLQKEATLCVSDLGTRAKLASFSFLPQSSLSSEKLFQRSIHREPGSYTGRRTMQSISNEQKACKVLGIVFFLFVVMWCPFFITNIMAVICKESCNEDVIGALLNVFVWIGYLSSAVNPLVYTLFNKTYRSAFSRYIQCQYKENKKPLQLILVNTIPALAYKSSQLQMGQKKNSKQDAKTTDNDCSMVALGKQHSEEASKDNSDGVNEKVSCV

| Structure (SMILES) | melting point | Ki (human 5-HT2A receptor) | Ki (human D3 receptor) | Ki (human D2 receptor) | D2 Ki (human D2 receptor) |
| --- | --- | --- | --- | --- | --- |
| O=C(N[C@H]1CC[C@H](CCN2CCC(c3cccc4c3CCO4)CC2)CC1)c1ccc(Cl)cc1 [Example 34, trans-4-Chloro-N-(4-{2-[4-(2,3-dihydro-benzofuran-4-yl)-piperidin-1-yl]-ethyl}-cyclohexyl)-benzamide] | 224 °C | 18.1 nM | 4.9 nM | 71.9 nM |  |
| COCCC(=O)N[C@H]1CC[C@H](CCN2CCC(c3cccc4occc34)CC2)CC1 [Example 2, trans-N-{4-[2-(4-Benzofuran-4-yl-piperidin-1-yl)-ethyl]-cyclohexyl}-3-methoxy-propionamide] | 154 °C | 7.1 nM | 3.1 nM | 288 nM |  |
| CC(=O)N[C@H]1CC[C@H](CCN2CCC(c3cccc4c3CCO4)CC2)CC1 [Example 5, trans-N-(4-{2-[4-(2,3-Dihydro-benzofuran-4-yl)-piperidin-1-yl]-ethyl}-cyclohexyl)-acetamide] | 183 °C | 37.2 nM | 6 nM | 298 nM |  |
| CC(C)CCC(=O)N[C@H]1CC[C@H](CCN2CCC(c3cccc4c3CCO4)CC2)CC1 [Example 75, 4-Methyl-pentanoic acid trans-(4-{2-[4-(2,3-dihydro-benzofuran-4-yl)-piperidin-1-yl]-ethyl}-cyclohexyl)-amide] | 188 °C | 72.9 nM | 9.97 nM | 1070 nM |  |
| O=C(N[C@H]1CC[C@H](CCN2CCC(c3cccc4c3CCO4)CC2)CC1)c1ccc(Cl)cc1Cl [Example 89, trans-2,4-Dichloro-N-(4-{2-[4-(2,3-dihydro-benzofuran-4-yl)-piperidin-1-yl]-ethyl}-cyclohexyl)-benzamide] | 188 °C | 31.5 nM | 8.28 nM | 234 nM |  |
| O=S(=O)(N[C@H]1CC[C@H](CCN2CCC(c3cccc4c3CCO4)CC2)CC1)c1ccc(F)cc1 [Example 50, trans-N-(4-{2-[4-(2,3-Dihydro-benzofuran-4-yl)-piperidin-1-yl]-ethyl}-cyclohexyl)-4-fluoro-benzenesulfonamide] | 134 °C | 86.8 nM | 4.1 nM | 105 nM |  |
| CC(C)(O)CC(=O)N[C@H]1CC[C@H](CCN2CCC(c3cccc4c3CCO4)CC2)CC1 [Example 72, trans-N-(4-{2-[4-(2,3-Dihydro-benzofuran-4-yl)-piperidin-1-yl]-ethyl}-cyclohexyl)-3-hydroxy-3-methyl-butyramide] | 168 °C | 56.1 nM | 6.33 nM | 176 nM |  |
| CC(C)(C)c1ccc(C(=O)N[C@H]2CC[C@H](CCN3CCC(c4cccc5c4CCO5)CC3)CC2)cc1 [Example 71, trans-4-tert-Butyl-N-(4-{2-[4-(2,3-dihydro-benzofuran-4-yl)-piperidin-1-yl]-ethyl}-cyclohexyl)-benzamide] | 208 °C | 28.6 nM | 13.6 nM |  | inactive |
| O=C(N[C@H]1CC[C@H](CCN2CCC(c3cccc4c3CCO4)CC2)CC1)C1CC1(F)F (stereo partly drawn) [Example 61, 2,2-Difluoro-cyclopropanecarboxylic acid trans-(4-{2-[4-(2,3-dihydro-benzofuran-4-yl)-piperidin-1-yl]-ethyl}-cyclohexyl)-amide] | 199 °C | 51.9 nM | 9.6 nM | 236 nM |  |
| O=C(CC1CCOCC1)N[C@H]1CC[C@H](CCN2CCC(c3cccc4c3CCO4)CC2)CC1 [Example 8, trans-N-(4-{2-[4-(2,3-Dihydro-benzofuran-4-yl)-piperidin-1-yl]-ethyl}-cyclohexyl)-2-(tetrahydro-pyran-4-yl)-acetamide] | 191 °C | 38.6 nM | 10.4 nM | 650 nM |  |
| COCC(=O)N[C@H]1CC[C@H](CCN2CCC(c3cccc4occc34)CC2)CC1 [Example 10, trans-N-{4-[2-(4-Benzofuran-4-yl-piperidin-1-yl)-ethyl]-cyclohexyl}-2-methoxy-acetamide] | 124 °C | 4.2 nM | 10.5 nM | 256 nM |  |
